Measured values: the supplement of paper PMC12463676, “Small-molecule dissolution of stress granules by redox modulation benefits ALS models” (Nature Chemical Biology, 2025)

How the values were obtained:
lipoamide = compound: NC(=O)CCCCC1CCSS1 [lipoamide]; experiment: thermal stability z-score vs DMSO; higher = more thermally stabilized by treatment; details: HeLa, lipoamide concentration 100 µM
Description: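 Cellular thermal proteome profiling in HeLa cells. Cells were treated with 100 µM lipoamide for 1 h, with or without 1 mM arsenate for a further 1 h, then heated to ten temperatures (37-66.3 °C), and soluble protein was quantified by TMT mass spectrometry relative to 0.1% DMSO controls. The thermal stability score (sum of log2 fold changes minus the abundance score) was transformed to a z-score; mean of n = 3 experiments.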

potassium arsenate = compound: O=[As]([O-])(O)O.[K+] [potassium arsenate]; experiment: as above; details: HeLa; arsenate concentration 1 mM
Description: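 Cellular thermal proteome profiling in HeLa cells treated with 1 mM arsenate for 1 h (DMSO pretreatment), heated to ten temperatures (37-66.3 °C). Soluble protein was quantified by TMT mass spectrometry relative to DMSO controls; the thermal stability score was transformed to a z-score; mean of n = 3 experiments.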

[1] = arsenate co-treatment: 1 mM arsenate 1 h
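Further: each temperature applied for 3 min, abundance score taken as mean log2 fold change at the two lowest temperatures, z-score obtained by mean subtraction and division by SD.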

UniProt Q7RTS9, sequence (Q7RTS9 whole entry): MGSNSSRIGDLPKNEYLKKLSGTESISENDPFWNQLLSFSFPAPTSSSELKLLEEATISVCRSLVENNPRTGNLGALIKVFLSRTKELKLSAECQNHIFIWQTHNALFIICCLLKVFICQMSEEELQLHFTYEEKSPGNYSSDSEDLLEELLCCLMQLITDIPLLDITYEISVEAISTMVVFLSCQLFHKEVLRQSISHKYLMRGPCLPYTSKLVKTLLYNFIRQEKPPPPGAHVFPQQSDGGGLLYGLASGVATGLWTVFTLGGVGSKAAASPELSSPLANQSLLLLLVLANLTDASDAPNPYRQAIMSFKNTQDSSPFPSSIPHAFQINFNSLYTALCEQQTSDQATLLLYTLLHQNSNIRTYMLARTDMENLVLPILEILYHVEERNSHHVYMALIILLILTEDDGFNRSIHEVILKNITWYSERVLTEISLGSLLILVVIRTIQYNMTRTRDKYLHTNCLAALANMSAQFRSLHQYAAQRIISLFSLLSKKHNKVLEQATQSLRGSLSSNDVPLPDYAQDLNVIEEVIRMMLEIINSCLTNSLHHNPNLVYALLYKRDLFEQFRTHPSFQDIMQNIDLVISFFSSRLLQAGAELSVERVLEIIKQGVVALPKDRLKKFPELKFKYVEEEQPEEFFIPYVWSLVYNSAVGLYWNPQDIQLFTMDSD
UniProt O95239, sequence (O95239 whole entry): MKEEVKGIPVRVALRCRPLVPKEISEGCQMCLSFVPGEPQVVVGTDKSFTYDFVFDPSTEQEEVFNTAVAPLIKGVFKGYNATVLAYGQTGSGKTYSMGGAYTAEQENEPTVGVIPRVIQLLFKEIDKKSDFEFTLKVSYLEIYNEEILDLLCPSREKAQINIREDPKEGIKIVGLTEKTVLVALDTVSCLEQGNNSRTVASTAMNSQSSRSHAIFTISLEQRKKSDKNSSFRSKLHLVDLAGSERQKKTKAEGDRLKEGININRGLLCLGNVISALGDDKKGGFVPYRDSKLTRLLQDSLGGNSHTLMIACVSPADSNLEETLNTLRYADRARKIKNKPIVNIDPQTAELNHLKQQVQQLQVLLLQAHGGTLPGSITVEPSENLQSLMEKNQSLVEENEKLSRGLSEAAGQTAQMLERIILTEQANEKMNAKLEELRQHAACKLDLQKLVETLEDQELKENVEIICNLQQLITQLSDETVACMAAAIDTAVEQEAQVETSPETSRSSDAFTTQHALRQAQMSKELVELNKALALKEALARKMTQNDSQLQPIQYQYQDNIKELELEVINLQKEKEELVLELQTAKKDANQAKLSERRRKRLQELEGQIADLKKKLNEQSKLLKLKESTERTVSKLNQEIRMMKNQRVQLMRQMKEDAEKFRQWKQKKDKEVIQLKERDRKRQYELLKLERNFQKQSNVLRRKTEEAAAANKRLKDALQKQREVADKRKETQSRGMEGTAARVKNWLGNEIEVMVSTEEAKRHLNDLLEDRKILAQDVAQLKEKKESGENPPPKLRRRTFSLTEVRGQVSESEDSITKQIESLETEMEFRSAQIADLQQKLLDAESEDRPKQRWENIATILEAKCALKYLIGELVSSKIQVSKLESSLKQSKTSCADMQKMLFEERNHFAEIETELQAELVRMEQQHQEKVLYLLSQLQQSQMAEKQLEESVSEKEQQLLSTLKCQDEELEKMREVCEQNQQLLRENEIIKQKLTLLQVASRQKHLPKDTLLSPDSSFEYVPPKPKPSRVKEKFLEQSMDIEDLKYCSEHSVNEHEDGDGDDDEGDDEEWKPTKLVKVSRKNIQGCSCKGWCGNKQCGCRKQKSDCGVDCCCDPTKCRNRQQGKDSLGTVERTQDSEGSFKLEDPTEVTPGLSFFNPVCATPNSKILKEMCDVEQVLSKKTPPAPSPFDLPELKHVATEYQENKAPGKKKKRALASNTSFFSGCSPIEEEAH
UniProt Q15334, sequence (Q15334 whole entry): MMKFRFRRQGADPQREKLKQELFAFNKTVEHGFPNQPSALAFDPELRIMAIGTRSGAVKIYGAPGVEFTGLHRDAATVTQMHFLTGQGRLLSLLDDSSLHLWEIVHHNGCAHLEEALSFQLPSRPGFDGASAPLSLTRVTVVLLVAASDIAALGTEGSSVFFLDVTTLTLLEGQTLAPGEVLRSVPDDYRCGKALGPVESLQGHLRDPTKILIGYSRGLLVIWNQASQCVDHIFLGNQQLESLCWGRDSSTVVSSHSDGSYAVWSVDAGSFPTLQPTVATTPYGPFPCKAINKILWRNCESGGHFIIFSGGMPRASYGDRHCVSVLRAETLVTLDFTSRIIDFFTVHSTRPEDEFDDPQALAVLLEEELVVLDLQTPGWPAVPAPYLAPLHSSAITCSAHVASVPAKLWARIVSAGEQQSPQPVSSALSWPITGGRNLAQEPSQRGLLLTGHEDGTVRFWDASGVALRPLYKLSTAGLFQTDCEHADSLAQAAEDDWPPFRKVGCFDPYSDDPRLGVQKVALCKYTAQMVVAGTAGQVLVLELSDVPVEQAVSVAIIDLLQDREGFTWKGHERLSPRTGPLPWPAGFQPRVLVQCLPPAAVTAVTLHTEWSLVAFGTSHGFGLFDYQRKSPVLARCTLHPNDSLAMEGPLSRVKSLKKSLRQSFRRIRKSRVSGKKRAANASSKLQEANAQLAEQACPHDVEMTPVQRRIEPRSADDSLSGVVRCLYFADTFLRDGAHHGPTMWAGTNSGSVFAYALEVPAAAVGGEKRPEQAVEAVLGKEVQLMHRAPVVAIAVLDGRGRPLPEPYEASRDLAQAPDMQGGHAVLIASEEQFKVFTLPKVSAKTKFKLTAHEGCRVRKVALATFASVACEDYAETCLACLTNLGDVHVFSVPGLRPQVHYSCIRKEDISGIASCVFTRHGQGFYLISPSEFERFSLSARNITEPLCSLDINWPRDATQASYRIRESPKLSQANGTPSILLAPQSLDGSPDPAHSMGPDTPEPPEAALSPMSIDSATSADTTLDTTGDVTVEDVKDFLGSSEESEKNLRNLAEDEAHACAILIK
UniProt Q9H1C3, sequence (Q9H1C3 whole entry): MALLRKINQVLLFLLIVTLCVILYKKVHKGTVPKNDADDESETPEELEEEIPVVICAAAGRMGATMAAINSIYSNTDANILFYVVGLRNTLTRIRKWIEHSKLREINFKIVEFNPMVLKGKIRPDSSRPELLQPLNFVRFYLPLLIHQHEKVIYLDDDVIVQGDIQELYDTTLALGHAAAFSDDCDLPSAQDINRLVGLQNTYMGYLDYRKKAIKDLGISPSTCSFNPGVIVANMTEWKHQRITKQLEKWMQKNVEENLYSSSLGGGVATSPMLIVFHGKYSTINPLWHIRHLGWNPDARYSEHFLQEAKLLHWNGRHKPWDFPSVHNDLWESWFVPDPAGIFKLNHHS
UniProt Q16629, sequence (Q16629 whole entry): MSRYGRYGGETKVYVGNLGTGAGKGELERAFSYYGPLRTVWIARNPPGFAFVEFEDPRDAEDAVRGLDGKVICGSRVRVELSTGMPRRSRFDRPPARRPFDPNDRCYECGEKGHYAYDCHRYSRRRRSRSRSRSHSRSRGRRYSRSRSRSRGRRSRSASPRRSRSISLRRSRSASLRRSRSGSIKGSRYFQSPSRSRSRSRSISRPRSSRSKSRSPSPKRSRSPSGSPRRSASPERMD
UniProt Q99470, sequence (Q99470 whole entry): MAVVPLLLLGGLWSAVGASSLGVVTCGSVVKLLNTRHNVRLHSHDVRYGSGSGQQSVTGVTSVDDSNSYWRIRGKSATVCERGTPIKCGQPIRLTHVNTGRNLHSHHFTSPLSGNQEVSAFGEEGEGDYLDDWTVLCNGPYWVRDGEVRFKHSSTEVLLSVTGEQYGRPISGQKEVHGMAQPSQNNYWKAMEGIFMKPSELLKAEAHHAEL
UniProt Q05086, sequence (Q05086 whole entry): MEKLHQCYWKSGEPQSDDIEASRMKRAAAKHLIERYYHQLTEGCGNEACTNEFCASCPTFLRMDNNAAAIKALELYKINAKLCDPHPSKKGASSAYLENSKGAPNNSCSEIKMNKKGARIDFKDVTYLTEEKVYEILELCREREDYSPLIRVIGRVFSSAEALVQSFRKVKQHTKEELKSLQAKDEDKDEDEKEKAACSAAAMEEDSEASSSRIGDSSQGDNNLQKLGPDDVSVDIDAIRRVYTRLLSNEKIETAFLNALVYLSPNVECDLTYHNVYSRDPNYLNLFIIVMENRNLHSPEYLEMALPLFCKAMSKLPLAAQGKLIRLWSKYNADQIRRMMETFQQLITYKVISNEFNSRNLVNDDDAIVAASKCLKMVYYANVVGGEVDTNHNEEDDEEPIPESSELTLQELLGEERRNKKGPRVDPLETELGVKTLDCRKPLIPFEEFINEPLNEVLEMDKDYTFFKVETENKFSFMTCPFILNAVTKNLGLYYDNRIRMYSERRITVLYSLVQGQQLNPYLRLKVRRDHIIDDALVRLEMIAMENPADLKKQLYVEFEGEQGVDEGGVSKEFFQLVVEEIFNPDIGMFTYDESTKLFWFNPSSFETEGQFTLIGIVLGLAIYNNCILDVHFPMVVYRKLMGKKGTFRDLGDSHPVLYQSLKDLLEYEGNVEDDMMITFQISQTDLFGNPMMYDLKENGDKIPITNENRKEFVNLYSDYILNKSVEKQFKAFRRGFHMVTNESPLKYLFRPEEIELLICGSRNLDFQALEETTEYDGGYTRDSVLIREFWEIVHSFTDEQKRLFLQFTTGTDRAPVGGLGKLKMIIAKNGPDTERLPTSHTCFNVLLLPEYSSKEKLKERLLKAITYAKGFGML
UniProt Q15366, sequence (Q15366 whole entry): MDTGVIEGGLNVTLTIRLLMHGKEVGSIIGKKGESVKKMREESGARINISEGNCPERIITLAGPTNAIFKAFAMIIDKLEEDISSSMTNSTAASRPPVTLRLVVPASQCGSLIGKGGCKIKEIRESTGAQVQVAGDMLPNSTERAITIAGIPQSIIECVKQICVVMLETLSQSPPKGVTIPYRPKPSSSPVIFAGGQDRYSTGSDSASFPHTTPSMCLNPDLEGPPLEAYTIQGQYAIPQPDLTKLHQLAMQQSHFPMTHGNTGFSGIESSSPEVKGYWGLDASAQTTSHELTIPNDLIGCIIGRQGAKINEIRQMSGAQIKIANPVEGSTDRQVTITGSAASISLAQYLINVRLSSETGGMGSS

| Target | thermal stability z-score (lipoamide; [1]) | thermal stability z-score (lipoamide; arsenate co-treatment: none) | thermal stability z-score (potassium arsenate) |
| --- | --- | --- | --- |
| SLC30A9 (UniProt Q6PML9) | 1.14 | 1.13 | 1.17 |
| ZFAND1 (UniProt Q8TCF1) | 0.233 | 0.29 | -0.247 |
| RBBP5 (UniProt Q15291) | 1.23 | 0.518 | -0.769 |
| NARS2 (UniProt Q96I59) | -0.454 | 0.256 | -0.19 |
| PARP12 (UniProt Q9H0J9) | 0.0419 | -0.00139 | -0.282 |
| STAMBP (UniProt O95630) | -0.0484 | -7.9e-05 | 1.23 |
| LGMN (UniProt Q99538) | -0.232 | -0.461 | -0.193 |
| TPM4 (UniProt P67936) | 0.31 | 0.407 | -0.0802 |
| ATE1 (UniProt O95260) | 0.315 | -0.209 | -2.08 |
| TFIP11 (UniProt Q9UBB9) | -0.0949 | -0.0621 | -0.187 |
| SNX4 (UniProt O95219) | -0.688 | -0.344 | 0.288 |
| IDH3G (UniProt P51553) | 0.738 | -0.664 | -0.189 |
| KIF4A (UniProt O95239) | -0.0934 | 0.023 | -0.219 |
| DNPEP (UniProt Q9ULA0) | -0.183 | 0.0127 | 0.248 |
| CLPB (UniProt Q9H078) | -0.507 | -0.275 | -0.0952 |
| TBC1D10A (UniProt Q9BXI6) | -0.00261 | -0.137 | 0.0768 |
| GABPB1 (UniProt Q06547) | 0.17 | 0.498 | 5.01 |
| MORC3 (UniProt Q14149) | -0.165 | -0.119 | -0.054 |
| RSBN1 (UniProt Q5VWQ0) | -0.421 | -0.198 | -0.387 |
| UBE3A (UniProt Q05086) | 0.245 | -0.149 | 0.3 |
| FBXO3 (UniProt Q9UK99) | -0.185 | -0.251 | -1.06 |
| DECR1 (UniProt Q16698) | -0.133 | 0.18 | -0.0171 |
| RPS6KC1 (UniProt Q96S38) | -0.161 | -0.151 | -0.393 |
| CDC40 (UniProt O60508) | -0.117 | 0.182 | 0.0978 |
| AHNAK2 (UniProt Q8IVF2) | 0.924 | 0.899 | 1.42 |
| RPL37A (UniProt P61513) | 0.766 | 0.392 | -0.29 |
| MAD2L1 (UniProt Q13257) | -0.109 | -0.147 | 1.96 |
| ABL1 (UniProt P00519) | -0.261 | -0.21 | 0.137 |

| Target | thermal stability z-score (lipoamide; [1]) | thermal stability z-score (lipoamide; arsenate co-treatment: none) | thermal stability z-score (potassium arsenate) |
| --- | --- | --- | --- |
| GOLGA3 (UniProt Q08378) | 0.291 | 0.128 | 0.587 |
| NADK (UniProt O95544) | 0.88 | 0.314 | -0.183 |
| PCBP2 (UniProt Q15366) | -0.426 | -0.239 | 0.141 |
| PLIN2 (UniProt Q99541) | 0.587 | 0.338 | 2.1 |
| PACSIN3 (UniProt Q9UKS6) | 0.00517 | 0.149 | -0.842 |
| MRPS27 (UniProt Q92552) | -0.204 | -0.193 | 0.189 |
| PSMG3 (UniProt Q9BT73) | 0.436 | -0.0166 | 0.28 |
| GLT8D2 (UniProt Q9H1C3) | -1.22 | -0.83 | -0.0179 |
| REPS2 (UniProt Q8NFH8) | 0.13 | -0.0113 | -0.0535 |
| PELO (UniProt Q9BRX2) | -0.811 | -0.364 | -0.0213 |
| LLGL1 (UniProt Q15334) | -0.455 | -0.324 | -0.755 |
| RIC8A (UniProt Q9NPQ8) | -0.305 | -0.238 | 0.476 |
| FLAD1 (UniProt Q8NFF5) | 0.0301 | 0.05 | -1.16 |
| SRSF7 (UniProt Q16629) | 1.94 | 0.776 | 0.182 |
| ZNF143 (UniProt P52747) | -0.135 | -0.0231 | 0.0928 |
| YES1 (UniProt P07947) | -0.641 | -0.393 | -2.98 |
| HUWE1 (UniProt Q7Z6Z7) | -0.216 | 0.0195 | 0.187 |
| KIF2C (UniProt Q99661) | -0.47 | -0.0787 | 0.56 |
| LMTK2 (UniProt Q8IWU2) | -0.465 | -0.397 | 1.04 |
| DYM (UniProt Q7RTS9) | 0.487 | -0.0128 | -0.365 |
| SLC44A2 (UniProt Q8IWA5) | -0.0733 | -0.171 | -0.517 |
| ARHGAP17 (UniProt Q68EM7) | 0.0634 | 0.493 | 0.874 |
| SDF2 (UniProt Q99470) | -3.1 | -2.94 | 0.21 |
| HNRNPM (UniProt P52272) | -0.523 | -0.135 | -1.87 |
| PNPLA6 (UniProt Q8IY17) | 0.758 | 0.548 | 0.246 |
| PPA1 (UniProt Q15181) | 1.07 | 0.424 | -0.342 |
| LRRFIP1 (UniProt Q32MZ4) | 0.409 | 0.475 | 0.228 |
